Experimental data: patent EP4667483A1, “HUMAN TRANSFERRIN RECEPTOR-BINDING PEPTIDE” (JCR Pharmaceuticals Co., Ltd., priority 2023, dated 2024)
Numbered stars: 1 amine (or outer) side, 2 acyl side, 3 side chain; on linkers, the order of the positions; unused ones are H or OH. Bridge positions count the residues as written; N and C are the ends. Square brackets hold non-standard residues; d marks the D form. Side chains are listed from the residue outwards. Peptide text beside a SMILES is read from it. * marks the point of attachment. Trp(1-CH2COOH) = N[C@@H](Cc1cn(CC(=O)O)c2ccccc12)C(=O)O; CH2CON(CH2CH2)2NCH2COOH = O=C(O)CN1CCN(C(=O)C*)CC1; Nle(6-morpholino) = N[C@@H](CCCCN1CCOCC1)C(=O)O; Trp(7-aza) = N[C@@H](Cc1c[nH]c2ncccc12)C(=O)O; NMePhe(3-Cl) = CN[C@@H](Cc1cccc(Cl)c1)C(=O)O; Piperazinyl(4-CH2COOH) = O=C(O)CN1CCN(*)CC1; 3Pal(6-NH2) = Nc1ccc(C[C@H](N)C(=O)O)cn1; NMeY = CN[C@@H](Cc1ccc(O)cc1)C(=O)O; 4Pal = N[C@@H](Cc1ccncc1)C(=O)O; PEG4 = NCCOCCOCCOCCOCCC(=O)O; Carboxymethyl = O=C(O)C*; CO = O=C([*:1])[*:2]

What was measured:
[1] = target: T1, human transferrin receptor (hTfR) (Homo sapiens, UniProt P02786); experiment: SPR measurement under pH 7.4 conditions (Biacore T200, CM3 chip, hTfR captured by His Tag antibody); assay type: binding; conditions: pH 7.4, single-cycle kinetics; read-out: hTfR SPR pH7.4 KD
T1 sequence (P02786 whole entry): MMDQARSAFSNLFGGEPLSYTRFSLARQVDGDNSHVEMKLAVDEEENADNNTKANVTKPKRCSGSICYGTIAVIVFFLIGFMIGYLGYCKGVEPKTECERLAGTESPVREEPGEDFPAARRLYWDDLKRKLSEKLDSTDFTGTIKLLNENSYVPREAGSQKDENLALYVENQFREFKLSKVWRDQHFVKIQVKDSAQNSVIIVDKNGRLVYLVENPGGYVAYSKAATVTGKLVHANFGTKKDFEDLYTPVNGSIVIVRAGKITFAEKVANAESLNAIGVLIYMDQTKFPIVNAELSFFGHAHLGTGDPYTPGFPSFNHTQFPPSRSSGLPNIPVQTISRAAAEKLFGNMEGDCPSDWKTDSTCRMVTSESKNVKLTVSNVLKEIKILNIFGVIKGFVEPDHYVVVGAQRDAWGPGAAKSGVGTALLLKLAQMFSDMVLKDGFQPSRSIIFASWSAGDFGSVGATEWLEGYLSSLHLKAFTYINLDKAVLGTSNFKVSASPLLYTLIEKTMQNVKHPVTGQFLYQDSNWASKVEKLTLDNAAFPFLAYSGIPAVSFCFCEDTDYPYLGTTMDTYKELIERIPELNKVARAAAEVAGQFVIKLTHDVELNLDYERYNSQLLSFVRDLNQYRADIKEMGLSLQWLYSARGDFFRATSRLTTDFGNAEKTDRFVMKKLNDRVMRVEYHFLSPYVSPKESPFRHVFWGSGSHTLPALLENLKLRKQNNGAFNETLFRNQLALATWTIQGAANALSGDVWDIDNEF

[2] = target: T1, human transferrin receptor (hTfR); experiment: SPR measurement under pH 6.0 conditions (Biacore T200, NTA chip, immobilized hTfR); assay type: binding; conditions: pH 6.0, single-cycle kinetics; read-out: hTfR SPR pH6.0 KD

SMILES | Kd [1] [nM] | Kd [2] [nM]
CC[C@H](C)[C@@H]1NC(=O)[C@H](Cc2ccc(OCC(=O)NC[C@H](O)[C@@H](O)[C@H](O)[C@H](O)CO)cc2)NC(=O)[C@H](Cc2ccc(N)nc2)NC(=O)[C@H](CC(N)=O)NC(=O)[C@H](Cc2c[nH]c3ncccc23)NC(=O)[C@H](C(C)C)NC(=O)[C@H](Cc2cccc(Cl)c2)N(C)C(=O)[C@H](C(C)C)NC(=O)[C@H](C)NC(=O)CSC[C@@H](C(=O)NCCOCCOCCOCCOCCC(N)=O)NC(=O)[C@H](Cc2ccc(O)cc2)N(C)C(=O)[C@H](Cc2ccncc2)NC(=O)[C@H](CCCNC(=N)N)NC(=O)[C@H](CCC(=O)NC[C@H](O)[C@@H](O)[C@H](O)[C@H](O)CO)NC(=O)[C@H]([C@@H](C)CC)NC1=O [compound 12] | 7.12 | 137
CC[C@H](C)[C@@H]1NC(=O)[C@H](Cc2ccc(OCC(=O)N3CCN(CC(=O)O)CC3)cc2)NC(=O)[C@H](Cc2ccc(O)cc2)NC(=O)[C@H](CC(N)=O)NC(=O)[C@H](Cc2c[nH]c3ncccc23)NC(=O)[C@H](C(C)C)NC(=O)[C@H](Cc2cccc(Cl)c2)N(C)C(=O)[C@H](C(C)C)NC(=O)[C@H](C)NC(=O)CSC[C@@H](C(=O)NCCOCCOCCOCCOCCC(N)=O)NC(=O)[C@H](Cc2ccc(O)cc2)N(C)C(=O)[C@H](Cc2ccncc2)NC(=O)[C@H](CCCNC(=N)N)NC(=O)[C@H](CCC(N)=O)NC(=O)[C@H]([C@@H](C)CC)NC1=O [compound 16] | 2.94 | 40.3

Further molecules by falling Kd [1], results first:

Kd [1] [nM] | Kd [2] [nM] | SMILES
30.8 | 108 | CC[C@H](C)[C@@H]1NC(=O)[C@H](Cc2ccc(OCC(=O)O)cc2)NC(=O)[C@H](Cc2ccc(N)nc2)NC(=O)[C@H](CC(N)=O)NC(=O)[C@H](Cc2c[nH]c3ncccc23)NC(=O)[C@H](C(C)C)NC(=O)[C@H](Cc2cccc(Cl)c2)N(C)C(=O)[C@H](C(C)C)NC(=O)[C@H](C)NC(=O)CSC[C@@H](C(=O)NCCOCCOCCOCCOCCC(N)=O)NC(=O)[C@H](Cc2ccc(O)cc2)N(C)C(=O)[C@H](Cc2ccncc2)NC(=O)[C@H](CCCNC(=N)N)NC(=O)[C@H](CCCCNC(=O)N2CCN(CC(=O)O)CC2)NC(=O)[C@H]([C@@H](C)CC)NC1=O [compound 14] ({CH2CO}-AV[NMePhe(3-Cl)]V[Trp(7-aza)]N[3Pal(6-NH2)]Y(Carboxymethyl)IIK([CO-Piperazinyl(4-CH2COOH)])R[4Pal][NMeY]C[PEG4]-NH2; thioether N-15)
15.9 | 102 | CC[C@H](C)[C@@H]1NC(=O)[C@H](Cc2ccc(OCC(=O)O)cc2)NC(=O)[C@H](Cc2ccc(N)nc2)NC(=O)[C@H](CC(N)=O)NC(=O)[C@H](Cc2c[nH]c3ncccc23)NC(=O)[C@H](C(C)C)NC(=O)[C@H](Cc2cccc(Cl)c2)N(C)C(=O)[C@H](C(C)C)NC(=O)[C@H](C)NC(=O)CSC[C@@H](C(=O)NCCOCCOCCOCCOCCC(N)=O)NC(=O)[C@H](Cc2ccc(O)cc2)N(C)C(=O)[C@H](Cc2ccncc2)NC(=O)[C@H](CCCCN2CCOCC2)NC(=O)[C@H](CCCCNC(=O)N2CCN(CC(=O)O)CC2)NC(=O)[C@H]([C@@H](C)CC)NC1=O [compound 15] ({CH2CO}-AV[NMePhe(3-Cl)]V[Trp(7-aza)]N[3Pal(6-NH2)]Y(Carboxymethyl)IIK([CO-Piperazinyl(4-CH2COOH)])[Nle(6-morpholino)][4Pal][NMeY]C[PEG4]-NH2; thioether N-15)
4.25 | 501 | CC[C@H](C)[C@@H]1NC(=O)[C@H](Cc2ccc(OCC(=O)N3CCN(CC(=O)O)CC3)cc2)NC(=O)[C@H](Cc2ccc(N)nc2)NC(=O)[C@H](CC(N)=O)NC(=O)[C@H](Cc2cn(CC(=O)O)c3ccccc23)NC(=O)[C@H](C(C)C)NC(=O)[C@H](Cc2cccc(Cl)c2)N(C)C(=O)[C@H](C(C)C)NC(=O)[C@H](C)NC(=O)CSC[C@@H](C(=O)NCCOCCOCCOCCOCCC(N)=O)NC(=O)[C@H](Cc2ccc(O)cc2)N(C)C(=O)[C@H](Cc2ccncc2)NC(=O)[C@H](CCCCN2CCOCC2)NC(=O)[C@H](CCCCNC(=O)N2CCN(CC(=O)O)CC2)NC(=O)[C@H]([C@@H](C)CC)NC1=O [compound 17] ({CH2CO}-AV[NMePhe(3-Cl)]V[Trp(1-CH2COOH)]N[3Pal(6-NH2)]Y(CH2CON(CH2CH2)2NCH2COOH)IIK([CO-Piperazinyl(4-CH2COOH)])[Nle(6-morpholino)][4Pal][NMeY]C[PEG4]-NH2; thioether N-15)
